What all share (conditions): exposure time: 90 min
One assay concerns 1083 (donor line of iPSC-derived cardiomyocytes). Description: POD (EC05) for decrease in beat frequency (negative chronotrope) vs vehicle; higher = less potent (higher point of departure). On the procedure: (§1)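 Human iPSC-derived cardiomyocytes from 16 donors were exposed for 90 min at 37 °C to each PFAS at 0.1, 1, 10 and 100 µM in 0.5% DMSO, 384-well plates. Kinetic Ca2+ flux (FLIPR) and Hoechst nuclei counts were normalised to vehicle wells and fitted with a hierarchical Bayesian Hill model to give donor-specific PODs: EC05 for beat-rate increase or decrease and for decay-to-rise ratio increase (QT proxy), EC95 for peak-frequency loss (asystole), EC10 for total cell number loss. 0.03 µM is the lower bound.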

The subject of a further assay is 1118 (donor line of iPSC-derived cardiomyocytes). The description is as above. On the procedure: as §1
The next assay deals with 11235 (donor line of iPSC-derived cardiomyocytes). The assay is described as above. On the procedure:
as §1

In a further assay the test system is 1309 (donor line of iPSC-derived cardiomyocytes). The description is as above. The method, then:
as §1

In the next assay the test system is 1368 (donor line of iPSC-derived cardiomyocytes). The description is as above. The method, then: as §1
Another assay relates to 1392 (donor line of iPSC-derived cardiomyocytes). The description is as above. On the procedure:
as §1

Another assay relates to 1434 (donor line of iPSC-derived cardiomyocytes). Described as above. On the procedure: as §1
Assay [1] has as its system 1516 (donor line of iPSC-derived cardiomyocytes). Described as above. On the procedure: as §1
The subject of assay [2] is 1518 (donor line of iPSC-derived cardiomyocytes). The description is as above. The method, then:
as §1

Assay [3] deals with 1531 (donor line of iPSC-derived cardiomyocytes). Described as above. The method, then:
as §1

The test system of another assay is 1535 (donor line of iPSC-derived cardiomyocytes). The description is as above. The method, then:
as §1

Another assay has as its system 1565 (donor line of iPSC-derived cardiomyocytes). The assay is described as above. The method, then:
as §1

A further assay deals with 20032 (donor line of iPSC-derived cardiomyocytes). Described as above. On the procedure:
as §1

For a further assay, the system named is 20084 (donor line of iPSC-derived cardiomyocytes). The description is as above. On the procedure:
as §1

Assay [4] concerns 30145 (donor line of iPSC-derived cardiomyocytes). The assay is described as above. The method, then:
as §1

Another assay relates to 30171 (donor line of iPSC-derived cardiomyocytes). Described as above. On the procedure: as §1
Assay [5] relates to 30145. Description: POD (EC05) for increase in beat frequency (positive chronotrope) vs vehicle; higher = less potent (higher point of departure). The method in brief: (§2)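 Cardiomyocytes derived from human iPSCs of 16 donors were grown 14 days in gelatin-coated 384-well plates, loaded 2 h with a fluorescent Ca2+ dye, then exposed for 90 min at 37 °C to final concentrations of 0.1, 1, 10 and 100 µM in 0.5% DMSO. A FLIPR Tetra recorded Ca2+ flux at 8 frames/s for 100 s before and after exposure. Points of departure for each donor were derived by hierarchical Bayesian Hill fitting of vehicle-normalised beat frequency, decay-to-rise ratio or peak frequency. The thresholds applied were a 5% change, or a 95% loss for peak frequency.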

For assay [6], the system named is 1516. Description: POD (EC05) for increase in Ca2+ transient decay-to-rise ratio (QT prolongation) vs vehicle; higher = less potent (higher point of departure). The method, boiled down:
as §2

For assay [7], the system named is 1518. The description is as above. The method in brief: as §2
Assay [8] concerns 1531. The description is as above. The method, boiled down:
as §2

Take `OCC(F)(F)C(F)(F)C(F)(F)C(F)F` [1H,1H,5H-Perfluoropentanol]: the POD vs vehicle in the assay with 1083 is greater than 100 µM; with 1118 it was 22.8 µM; in the assay with 11235, greater than 100 µM; in the assay with 1309, greater than 100 µM; in the assay with 1368, greater than 100 µM; in the assay with 1392, greater than 100 µM. Moreover, the POD vs vehicle with 1434 was greater than 100 µM; in the assay on 1516 [1], greater than 100 µM; in the assay on 1518 [2] it was greater than 100 µM; with 1531 [3], 45.9 µM; in the assay with 1535, greater than 100 µM; in the assay with 1565 it was greater than 100 µM. The POD vs vehicle is greater than 100 µM in the assay with 20032; 35.1 µM in the assay with 20084; greater than 100 µM in the assay with 30145 [4]; greater than 100 µM in the assay with 30171; greater than 100 µM in the assay on 30145 [5]; 4.56 µM with 1516 [6]. In addition, the POD vs vehicle with 1518 [7] amounted to 2.03 µM.

Turning to `O=S(=O)(OCC(F)(F)F)C(F)(F)C(F)(F)C(F)(F)C(F)(F)F` [2,2,2-Trifluoroethyl_perfluorobutanesulfonate], the POD vs vehicle in the assay with 1083, in the assay with 1118, in the assay with 11235, in the assay with 1309, in the assay with 1368 and in the assay on 1392 was greater than 100 µM each time. Moreover, the POD vs vehicle in the assay on 1434, in the assay with 1516 [1], in the assay on 1518 [2], in the assay on 1531 [3], with 1535 and in the assay on 1565 was greater than 100 µM throughout. Further, the POD vs vehicle was greater than 100 µM with 20032; greater than 100 µM in the assay on 20084; greater than 100 µM with 30145 [4]; 49.1 µM in the assay on 30171; greater than 100 µM with 30145 [5].

Regarding `O=C(O)C(F)(F)C(F)(F)C(F)F` [2,2,3,3,4,4-Hexafluorobutanoic_acid], the POD vs vehicle with 1083, with 1118, in the assay on 11235, with 1309, in the assay on 1368 and with 1392 was greater than 100 µM in each case. In addition, the POD vs vehicle in the assay with 1434, in the assay with 1516 [1], with 1518 [2], in the assay on 1531 [3], in the assay with 1535 and in the assay with 1565 was greater than 100 µM each time. The POD vs vehicle in the assay on 20032, in the assay on 20084, with 30145 [4], with 30171 and in the assay on 1531 [8] was greater than 100 µM in each case.

For `NC(O)(C(F)(F)F)C(F)(F)F` [2-Aminohexafluoropropan-2-ol], the POD vs vehicle in the assay on 1083 was greater than 100 µM; in the assay on 1118, 16.9 µM; in the assay with 11235, 7.51 µM; with 1309, greater than 100 µM; in the assay with 1368, greater than 100 µM; in the assay on 1392, greater than 100 µM. Further, the POD vs vehicle was 85.7 µM in the assay with 1434; 22.6 µM in the assay with 1516 [1]; greater than 100 µM in the assay on 1518 [2]; greater than 100 µM in the assay on 1531 [3]; 83.8 µM in the assay on 1535; greater than 100 µM in the assay on 1565. Further, the POD vs vehicle with 20032 is 80.9 µM; with 20084, greater than 100 µM; in the assay on 30145 [4] it was greater than 100 µM; in the assay with 30171, 36.5 µM; in the assay on 1531 [8] it was greater than 100 µM.

Turning to `O=C(CC(=O)C(F)(F)C(F)(F)F)C(F)(F)F` [3H,3H-Perfluoro-2,4-hexanedione], the POD vs vehicle in the assay with 1083 was greater than 100 µM; in the assay on 1118, 24.6 µM; in the assay with 11235, 24.9 µM; in the assay on 1309, greater than 100 µM; in the assay on 1368 it was greater than 100 µM; in the assay with 1392, greater than 100 µM. The POD vs vehicle with 1434 is 22.6 µM; in the assay with 1516 [1] it was 45.3 µM; in the assay with 1518 [2], greater than 100 µM; with 1531 [3], greater than 100 µM; with 1535, greater than 100 µM; in the assay on 1565, greater than 100 µM. For the same molecule, the POD vs vehicle was greater than 100 µM in the assay on 20032; greater than 100 µM in the assay with 20084; greater than 100 µM with 30145 [4]; 23.5 µM in the assay on 30171; greater than 100 µM in the assay with 30145 [5]; greater than 100 µM in the assay on 1516 [6]. Also, in the assay with 1518 [7], the POD vs vehicle was greater than 100 µM.

Values taken from the supplement of paper PMC11368000.
